Results from PMC3017236 (Clinical cancer research : an official journal of the …, 2010).
Entries after “also recorded” stand apart in the source; their conditions may differ.

What was measured:
[1] = test system: Bcrp1/Abcg2; experiment: in vivo; settings: mouse, brain ECF (relative to unbound plasma), po, 50 mg/kg
[2] = biological target: human ABCB1 (P-gp/MDR1) (Homo sapiens, UniProt P08183); experiment: Intracellular accumulation in LLCPK1-MDR1 cells vs LLCPK1 cells
[3] = test system: P-gp (Mdr1a/b) and Bcrp1/Abcg2; settings: mouse, in vivo
[4] = mouse, in vivo
[5] = test system: Bcrp1/Abcg2; settings: mouse, in vivo

human ABCB1 (P-gp/MDR1), sequence (P08183 whole entry): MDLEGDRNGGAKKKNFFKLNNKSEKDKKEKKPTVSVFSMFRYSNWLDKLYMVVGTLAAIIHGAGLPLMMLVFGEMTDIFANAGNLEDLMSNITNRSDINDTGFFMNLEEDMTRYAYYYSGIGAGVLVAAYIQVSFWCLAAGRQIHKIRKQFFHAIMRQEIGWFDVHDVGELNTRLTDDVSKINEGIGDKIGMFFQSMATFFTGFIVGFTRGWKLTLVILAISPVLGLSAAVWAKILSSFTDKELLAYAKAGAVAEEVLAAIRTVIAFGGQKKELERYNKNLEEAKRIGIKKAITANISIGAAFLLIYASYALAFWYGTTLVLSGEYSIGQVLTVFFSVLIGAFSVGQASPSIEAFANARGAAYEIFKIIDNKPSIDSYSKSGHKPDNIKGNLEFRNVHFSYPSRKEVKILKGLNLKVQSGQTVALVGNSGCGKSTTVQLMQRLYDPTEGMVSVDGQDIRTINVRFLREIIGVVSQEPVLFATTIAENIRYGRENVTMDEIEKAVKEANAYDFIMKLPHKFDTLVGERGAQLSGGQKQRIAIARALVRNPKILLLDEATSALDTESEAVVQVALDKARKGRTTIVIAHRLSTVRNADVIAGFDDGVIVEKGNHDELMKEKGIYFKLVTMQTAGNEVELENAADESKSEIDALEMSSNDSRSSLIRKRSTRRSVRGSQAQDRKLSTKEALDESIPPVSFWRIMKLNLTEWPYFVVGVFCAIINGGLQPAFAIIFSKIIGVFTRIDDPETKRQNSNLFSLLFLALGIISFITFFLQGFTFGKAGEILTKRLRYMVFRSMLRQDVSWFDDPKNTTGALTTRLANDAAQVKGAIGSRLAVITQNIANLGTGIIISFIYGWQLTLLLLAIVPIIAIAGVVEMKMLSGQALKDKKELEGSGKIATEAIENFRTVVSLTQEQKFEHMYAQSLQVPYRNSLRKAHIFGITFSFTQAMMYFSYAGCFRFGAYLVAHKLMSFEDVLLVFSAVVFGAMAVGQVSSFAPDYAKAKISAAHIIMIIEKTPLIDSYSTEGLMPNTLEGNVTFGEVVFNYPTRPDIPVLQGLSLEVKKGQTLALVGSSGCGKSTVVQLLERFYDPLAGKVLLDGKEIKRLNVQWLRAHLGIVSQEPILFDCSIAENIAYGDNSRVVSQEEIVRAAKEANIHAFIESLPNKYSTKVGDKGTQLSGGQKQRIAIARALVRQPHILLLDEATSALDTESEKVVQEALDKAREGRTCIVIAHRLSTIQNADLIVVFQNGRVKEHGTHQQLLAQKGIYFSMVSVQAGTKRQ

SMILES	Kp [1]	Effect of elacridar on intracellular accumulation ([2]; LLCPK1-MDR1 cells, pre-incubation 30 minutes with elacridar (4 μM))	Intracellular accumulation vs control cells ([2]; LLCPK1-MDR1 vs LLCPK1, 0.5 μg/mL, 37°C)	Brain penetration relative to wild-type mice [3] [fold]	Penetration of unbound drug from plasma across the BBB [4] [%]	PBrain (brain ECF-to-unbound plasma AUC0-24 ratio) ([4]; po, 50 mg/kg)	Brain penetration relative to wild-type mice [5] [fold]
C#Cc1cccc(Nc2ncnc3cc(OCCOC)c(OCCOC)cc23)c1 [erlotinib, Erlotinib]	1.4 ± 0.9						
C#Cc1cccc(Nc2ncnc3cc(OCCOC)c(OCCO)cc23)c1 [OSI-420]		significantly increased	lower accumulation; also recorded: significantly reduced	4	7	0.07±0.02	7
